Assay results taken from PubChem BioAssay AID1996.
Converted amounts (≈) assume the structure as drawn.

conditions: buffer; pH 7.4; 200.0 µM

Structure (SMILES)	solubility kinetic [µg/mL]
Cc1ccc(C(=O)NC(=O)OCCn2c(C)cnc2[N+](=O)[O-])cc1	48.2 (≈ 145 µM)
COc1ccc(CN2C(=O)COc3ccccc32)cc1	34.1 (≈ 127 µM)
CC1CN(Cc2cc(=O)oc3cc(O)c(Cl)cc23)CC(C)O1 (centres undefined)	41 (≈ 127 µM)
COc1ccc2c3c([nH]c2c1)C(C)=NCC3	30.6 (≈ 143 µM)
CC(=O)Oc1ccc2oc(-c3ccccc3)c(C(N)=O)c2c1	1.4 (≈ 4.74 µM)
N#Cc1ccccc1S(=O)(=O)N1CCN(C(=O)C2CC(=O)N(c3ccc4c(c3)OCCO4)C2)CC1 (centres undefined)	68.6 (≈ 138 µM)
Oc1cccc(C=Nc2cccc3ccccc23)c1O	18.3 (≈ 69.5 µM)
CCN=C(NCC)SC1CC(=O)N(CCc2ccccc2)C1=O (centres undefined)	36.3 (≈ 109 µM)
O=C(Nc1cc(Cl)cc(Cl)c1)Nc1cnccn1	0.2 (≈ 0.706 µM)
COC(=O)c1ccc(S(=O)(=O)NCCc2ccccc2OC)n1C	23 (≈ 65.3 µM)
CCOc1cc(C)c(S(=O)(=O)N2CCCCC2)cc1C	14.5 (≈ 48.8 µM)
Cc1ccc(C)c(C(=O)COC(=O)c2c(-c3ccccc3)noc2C)c1	4.4 (≈ 12.6 µM)
O=C(NCCN1CCCCC1)c1cc(Cl)ccc1Cl	39.8 (≈ 132 µM)
CC#C[C@]1(O)CC[C@H]2[C@@H]3CCC4=CC(=O)CCC4=C3[C@@H](c3ccc(N(C)C)cc3)C[C@@]21C	7 (≈ 16.3 µM)
Cc1cc(C(=O)COC(=O)Cc2ccc(Cl)cc2)c(C)n1C	21.3 (≈ 66.6 µM)
CC1Cc2ccccc2N1C(=O)Cn1cc([N+](=O)[O-])ccc1=O (centres undefined)	> 47
COc1ccc(C(=O)COC(=O)CN2C(=O)C3CC=CCC3C2=O)c(OC)c1 (centres undefined)	57.6 (≈ 149 µM)
OC(CNC1Cc2ccccc2C1)c1ccccc1 (centres undefined)	> 38
O=S1(=O)CC(O)C(NCCO)C1 (centres undefined)	> 29.3
Cc1cnc(C(=O)OCC(=O)NC(=O)c2ccccc2)cn1	> 44.9
CSc1ncccc1C(=O)Nc1cccc(S(=O)(=O)N2CCCCCC2)c1	11.2 (≈ 27.6 µM)
O=c1[nH]c(O)c(C=NC2CCCCC2)c(=O)[nH]1	> 35.6
O=C(O)/C=C/c1ccc(S(=O)(=O)Nc2cccnc2)cc1	> 45.6
CC(=O)Nc1ccc(S(=O)(=O)Nc2cccc3cccnc23)cc1	> 51.2

Structure (SMILES)	solubility kinetic [µg/mL]
CC1CN(C(=O)c2ccc(NS(=O)(=O)c3ccc(F)cc3)cc2)CC(C)O1 (centres undefined)	> 58.9
S=C(NCCCc1ccccc1)Nc1ccccc1	31.9 (≈ 118 µM)
CC(Sc1nc2ccc(C(=O)c3ccccc3)cc2[nH]1)C(=O)O (centres undefined)	> 49
COc1cc(OC)cc(C(=O)NCc2ccc3[nH]c(C)cc3c2)c1	3.3 (≈ 10.2 µM)
Cc1ccc(C(=O)NCCNC(=O)c2ccco2)cn1	31.7 (≈ 116 µM)
O=Cc1c(NCCN2CCCC2)c2ccccc2[nH]c1=O	> 42.8
O=C(CCC(=O)N1CCc2ccccc2C1)NCCc1ccc(Cl)cc1	> 55.6
O=C(NCCCn1ccnc1)/C(=C/c1ccco1)NC(=O)c1cccs1	50.1 (≈ 135 µM)
Cl.O=C(NC(=S)N1CCN(c2ccccc2)CC1)c1ccco1	> 52.8
CCSc1nc(NCCN(C)C)c2c3c(sc2n1)COC(C)(CC)C3 (centres undefined)	46.4 (≈ 122 µM)
CC(C)C(=O)N1CC(=O)Nc2ccc(F)cc2C1c1ccc(F)cc1 (centres undefined)	> 51.7
C=CCn1c(O)c(C(C)=NCCCN(C)C)c(=O)[nH]c1=O	> 44.2
Cc1ccc(OCCOC(=O)c2c(-c3ccccc3)noc2C)cc1	< 0.7
CCOC(=O)c1ccccc1NC(=O)c1ccc2nc[nH]c2c1	11.3 (≈ 36.5 µM)
O=C(CN1C(=O)NC2(CCCc3ccccc32)C1=O)c1ccc(F)c(F)c1 (centres undefined)	17.3 (≈ 46.7 µM)
N#Cc1cccc(C(=O)N(CCc2ccccc2)Cc2cccs2)c1	12.9 (≈ 37.2 µM)
Cc1ccc(NC(=O)CCl)c(C)c1	> 29.7
Cc1ccc(NC(=O)Cn2c([N+](=O)[O-])cnc2C)cc1Cl	1.6 (≈ 5.18 µM)
NCc1oc(-c2ccccc2)cc1C(=O)O	22.2 (≈ 102 µM)
COc1cccc(N2CCN(C(=O)c3cc(C)oc3C)CC2)c1	> 47.2
CCN1CCN(S(=O)(=O)c2ccc(OC)cc2)CC1	36.8 (≈ 129 µM)
C=CCOc1cccc(CNCc2ccncc2)c1	28 (≈ 110 µM)
CCOc1ccc(-c2nc(N)ncc2Oc2ccc(OC)cc2)c(O)c1	1 (≈ 2.83 µM)
Clc1ccccc1-c1nc(-c2ccncc2)no1	7 (≈ 27.2 µM)

Structure (SMILES)	solubility kinetic [µg/mL]
COc1cc(N2CCCC2)ccc1C=O	29 (≈ 141 µM)
COC(=O)[C@H](C)NC(=O)NCCC1=CCCCC1	> 38.1
Cc1cc(C)cc(NC(=O)CC2Oc3ccc(C)cc3NC2=O)c1 (centres undefined)	1.6 (≈ 4.93 µM)
Cc1cc(C(=O)COC(=O)/C=C/c2cccc(F)c2)c(C)n1C	< 0.7
CCCNC(=O)c1ccc(C)c(NC(=O)C2=C(C)OCCS2)c1	> 50.2
Cc1ccc(-n2c(SCC(=O)N(C)C3CCS(=O)(=O)C3)nc3ccccc3c2=O)c(C)c1 (centres undefined)	> 70.7
Cc1nc2ccccc2[nH]c1=O	> 24
COc1cc2c(cc1OC)C(C)N(C(=O)c1c(-c3ccccc3)noc1C)CC2 (centres undefined)	9 (≈ 22.9 µM)
CCCCOC(=O)c1sc2nc(C)cc(C)c2c1N	0.6 (≈ 2.16 µM)
N/C(=N\OC(=O)Nc1ccccc1)c1cccc(C(F)(F)F)c1	27.9 (≈ 86.3 µM)
Cc1cc(C(=O)Nc2ccncc2)c2ccccc2n1	26.3 (≈ 99.9 µM)
CC(Sc1nncn1C)C(=O)Nc1ccc2ccccc2c1 (centres undefined)	> 46.9
CC(NC(=S)NC(=O)c1ccccc1)c1ccccc1 (centres undefined)	6.4 (≈ 22.5 µM)
O=C(O)CCCCCNC(=O)/C(=C\c1ccco1)NC(=O)c1ccco1	44.3 (≈ 123 µM)
COc1ccc(C)cc1NC(=S)N1CCN(c2ncccn2)CC1	47.4 (≈ 138 µM)
Cc1cccc(NC(=S)N(C)C)c1C	> 31.2
CC(=O)c1ccc(NC(=O)C2(c3ccccc3)CC2(Cl)Cl)cc1 (centres undefined)	19.6 (≈ 56.3 µM)
O=C(NCC1CCCO1)c1cc2c(s1)CCC2 (centres undefined)	> 37.7
CCc1cccc(CC)c1NC(=S)Nc1cccc(Cl)c1Cl	1.4 (≈ 3.96 µM)
CNC(=S)Nc1cc(C(=O)N2CCCC2)ccc1N1CCCC1	> 49.9
Fc1ccccc1-c1nc(-c2ccc(Br)o2)no1	< 0.3
COc1ccc(CCNc2ncnc3c2c(C)c(C)n3CCO)cc1OC	53.8 (≈ 145 µM)
CC(Oc1ccc(-c2nnco2)cc1)C(=O)N1CCOCC1 (centres undefined)	> 45.5
Cc1ccc(Nc2nc(N)nc(CCl)n2)cc1	> 37.5

Structure (SMILES)	solubility kinetic [µg/mL]
COc1ccc(/C=C2\N=C(C)OC2=O)cc1OC	36.9 (≈ 149 µM)
O=CN1CCN(CC(O)Cn2c3ccccc3c3ccccc32)CC1 (centres undefined)	43.3 (≈ 128 µM)
CCOCCCNC(=O)/C(C#N)=C/c1ccccc1F	> 41.4
COc1ccc(/C=C/C(=O)N2CCN(C)CC2)cc1OC	> 43.6
O=C1OC(c2ccc(F)cc2)=N/C1=C\c1ccc(Br)o1	9.6 (≈ 28.6 µM)
CN(C)CC#CCC(O)(c1ccccc1)c1ccccc1	> 41.9
CCCOc1ccc(/C=C/c2c([N+](=O)[O-])c(=O)n(C)c(=O)n2C)cc1	< 0.2
Cc1cc(C)cc(NC(=O)[C@@H](NC(=O)c2ccco2)C(C)C)c1	2.8 (≈ 8.91 µM)
O=C(Nc1cccnc1)c1cc2cc(Br)ccc2o1	0.9 (≈ 2.84 µM)
CC(=O)c1cccc(NC(=O)C2=CN3CCS(=O)(=O)N=C3C=C2)c1	48.1 (≈ 139 µM)
Cn1nccc1C(=O)N1CCOCC1	> 29.3
C=C(C)COc1ccc(-c2ncncc2-c2ccccc2OC)c(O)c1	5.5 (≈ 15.8 µM)
COc1ccc(NS(=O)(=O)c2c(C)[nH]c(=O)[nH]c2=O)cc1OC	> 51.2
CC(=O)c1ccc(S(=O)(=O)N2CCC3(CC2)OCCO3)cc1	> 48.8
COc1ccc(NC(=O)CN2CC(C)OC(C)C2)cc1Cl (centres undefined)	43 (≈ 137 µM)
CC(C)Cc1ccc(C(C)C(=O)Nc2ncccn2)cc1 (centres undefined)	35.9 (≈ 127 µM)
O=C(Cc1ccc([N+](=O)[O-])cc1)NCc1cccnc1	> 40.7
Clc1cc(NC2CCCCC2)ncn1	> 31.8
CC(C)n1c(SCC(=O)N2CCCCC2)nc2c1c(=O)n(C)c(=O)n2C	> 56.9
COCCNC(=S)N1CCN(C/C=C/c2ccccc2)CC1	> 47.9
O=C(NCCN1CCOCC1)c1cc(Cl)ccc1Cl	41 (≈ 135 µM)
O=C(CSc1nnc2ccccn12)NCCc1ccc(F)cc1	> 49.6
Cc1ccc(NC(=O)CSc2nccn2C)cc1F	> 41.9
COC(=O)/C=C1\SC(=Nc2ccc(OC)cc2)NC1=O	1.9 (≈ 6.5 µM)

Structure (SMILES)	solubility kinetic [µg/mL]
Cc1ccc(S(=O)(=O)N2CCN(c3cccc(C)c3)CC2)cc1	< 0.4
COc1ccccc1OCCn1c(SCC(=O)O)nc2ccccc21	> 53.8
CC(C)OC(=O)c1cc2c(=O)[nH]c(C(Cl)(Cl)Cl)nc2o1	47.6 (≈ 140 µM)
O=C(COc1ccc(C(=O)O)cc1)Nc1cccc(C(F)(F)F)c1	> 50.9
Oc1ccc(N2CCN(CC(O)c3ccccc3)CC2)cc1 (centres undefined)	> 44.8
Cc1ccc(S(=O)(=O)N2CCC(=O)CC2)cc1	> 38
Cc1nc(SCc2cccc(F)c2)c2oc3ccccc3c2n1	< 0.3
CCOC(=O)c1cc2c(=O)[nH]c(C(Cl)(Cl)Cl)nc2o1	> 48.8
Cc1ccc(Cn2ccccc2=N)cc1.Cl	> 35.2
Cc1ccc(OCC(=O)N2CCN(C(=O)c3ccncc3)CC2)cc1	> 50.9
Cc1ccc(S(=O)(=O)Nc2cccc(C(=O)NCC(c3ccc(F)cc3)N3CCOCC3)c2)cc1 (centres undefined)	58.2 (≈ 117 µM)
Cc1ccccc1CC(=O)N1CCOCC1	> 32.9
COc1cnc(-c2ccccn2)nc1Oc1cccc(C(F)(F)F)c1	37.4 (≈ 108 µM)
COC(=O)CNc1nc(Cl)nc(N2CCC(C)CC2)n1	39.5 (≈ 132 µM)
CC(C)(C)NC(=S)N1CCn2cccc2C1c1cccnc1 (centres undefined)	33.5 (≈ 107 µM)
O=S(=O)(Nc1cccc(CO)c1)c1cccs1	> 40.4
O=C(NC1CC1)c1cc(=S)[nH]c2ccccc12	> 36.6
N#Cc1ccccc1OCC(=O)Nc1ccc(S(=O)(=O)N2CCOCC2)cc1	6.9 (≈ 17.2 µM)
CN(C)S(=O)(=O)c1cccc(C(=O)NC2CCSc3ccccc32)c1 (centres undefined)	4.8 (≈ 12.7 µM)
CCS(=O)(=O)c1ccc(O)c(NC(=O)/C=C/c2ccccc2)c1	> 49.7
COc1ccc(-c2c(C#N)c(N)nc3c2CCC3)cc1	0.3 (≈ 1.13 µM)
Cc1ccc(CNS(=O)(=O)c2cccc3nsnc23)cc1	> 47.9
Cc1ccc(NC(=S)NC2CCCC2)c(C)c1	33.3 (≈ 134 µM)
